For series [1], the target named is T1, human orexin 1 receptors (Homo sapiens, UniProt O43613).
T1 construct: expressed in transfected cells; host or cells: CHO cells (membrane preparation)
T1 sequence (O43613 1-425): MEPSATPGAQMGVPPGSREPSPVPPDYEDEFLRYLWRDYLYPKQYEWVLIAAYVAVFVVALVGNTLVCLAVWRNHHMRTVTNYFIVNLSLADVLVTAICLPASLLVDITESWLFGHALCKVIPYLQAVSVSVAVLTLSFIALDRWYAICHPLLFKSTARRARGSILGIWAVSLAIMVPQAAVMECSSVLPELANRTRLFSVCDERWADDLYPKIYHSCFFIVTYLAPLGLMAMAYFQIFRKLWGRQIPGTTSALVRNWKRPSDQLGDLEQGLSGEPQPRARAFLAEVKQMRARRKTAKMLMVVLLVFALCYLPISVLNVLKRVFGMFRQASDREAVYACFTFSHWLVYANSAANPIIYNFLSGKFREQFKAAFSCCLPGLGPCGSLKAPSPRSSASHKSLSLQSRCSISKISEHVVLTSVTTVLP
The experiment in a line: in vitro binding: displacement of radio-iodinated orexin A on CHO cell membrane preparation. As to conditions: membrane preparation of CHO cells expressing human orexin 1 receptors, read-out: IC50 OX 1. On the procedure:
(§1) They were in particular tested as regards their effects. […] This method consists in studying the displacement of radio-iodinated orexin A bound to human orexin 2 receptors expressed in CHO cells. The test is performed on membranes in a Hepes 50 mM, MgCl2 1 mM, CaCl2 25 mM, NaN3 0.025%, bovine serum albumin (BSA) 1% incubation buffer and 100 pM of ligand, for 30 minutes at 25° C. The reaction is quenched by filtration and washing on a Whatman GF/C filter. The non-specific binding is measured in the presence of 10^−6M of human orexin B. The IC50 values (concentration that inhibits 50% of the binding of the radio-iodinated orexin A to its receptors) are low, less than 300 nM, in particular less than 100 nM and more particularly less than 30 nM. The affinity of the compounds according to the invention for the orexin 1 receptors was also studied in a test of in vitro binding according to the same technique using radio-iodinated orexin A as ligand in a membrane preparation of CHO cells expressing the human orexin 1 receptors. The compounds according to the invention show little or no affinity for the orexin 1 receptors.

Series [2] concerns the target T2, orexin 2 receptors (Homo sapiens, UniProt O43614).
T2 sequence (O43614 1-444): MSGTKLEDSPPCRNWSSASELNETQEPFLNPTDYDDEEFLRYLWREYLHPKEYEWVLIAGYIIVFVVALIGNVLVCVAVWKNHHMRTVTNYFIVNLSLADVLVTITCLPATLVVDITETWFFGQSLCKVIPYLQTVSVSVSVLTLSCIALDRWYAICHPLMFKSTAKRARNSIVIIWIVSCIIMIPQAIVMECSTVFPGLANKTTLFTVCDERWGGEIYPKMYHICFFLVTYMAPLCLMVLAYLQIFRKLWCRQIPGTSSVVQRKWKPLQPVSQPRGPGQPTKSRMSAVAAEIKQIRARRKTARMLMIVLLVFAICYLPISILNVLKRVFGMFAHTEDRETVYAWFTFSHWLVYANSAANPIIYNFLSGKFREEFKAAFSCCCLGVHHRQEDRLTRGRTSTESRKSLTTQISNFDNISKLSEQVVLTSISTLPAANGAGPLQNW
The experiment in a line: measurement of intracellular calcium (FLIPR), antagonist test against orexin B. As to conditions: 30 minutes preincubation before addition of 0.25 nM orexin B, Fluo-4 AM, read-out: Measurement of [Ca^2+]i IC50 OX 2 - FLIPR. The series is classed as cell-based. As for the experimental part: The agonist or antagonist nature of the compounds is determined in vitro in a test of measurement of intracellular calcium (FLIPR) on a cell preparation expressing the orexin 2 receptors, according to the general technique described in Sullivan et al., Methods Mol. Biol., 1999, vol. 114, 125-133, using 1 μM of Fluo-4 AM as fluorescent calcium indicator.

Series [3] concerns the target T2, orexin 2 receptors. The series can be described thus: in vitro binding: displacement of radio-iodinated orexin A on CHO cell membranes. Also noted: expressed in transfected cells; host or cells: CHO cells (membranes). As to conditions: human orexin 2 receptors in CHO cell membranes, 100 pM ligand, 30 minutes at 25° C., read-out: IC50 OX 2. As for the experimental part: as §1, with “nM.” for “nM. The affinity of the compounds according to the invention for the orexin 1 receptors was also studied in a test of in vitro binding according to the same technique using radio-iodinated orexin A as ligand in a membrane preparation of CHO cells expressing the human orexin 1 receptors. The compounds according to the invention show little or no affinity for the orexin 1 receptors.”

Where two headings read alike, the source gives them in different places. Where only a bound is given, the exact number is not on record here.

With `COc1ccc(S(=O)(=O)N(CC(N)=O)c2ccc(Cl)cc2N(C)c2ccccc2)cc1OC` [Compound 92, N^2-{4-chloro-2-[methyl(phenyl)amino]phenyl}-N^2-[(3,4-dimethoxyphenyl)sulfonyl]glycinamide], the melting point was 192.5 °C.
On to `COc1ccc(S(=O)(=O)N(CC(N)=O)c2ccc(Cl)cc2C(O)c2cccc(Cl)c2)cc1OC` (centres unmarked) [Compound 44, N^2-{4-chloro-2-[(3-chlorophenyl)(hydroxy)methyl]phenyl}-N^2-[(3,4-dimethoxyphenyl)sulfonyl]glycinamide], for which the half-inhibitory concentration (IC50) in series [1] (unit μM) was above 10 µM; in series [2] it was 54 nM; in series [3], 85 nM.
`COc1ccc(S(=O)(=O)N(CC(N)=O)c2cc(N(C)C)ccc2Cc2c(F)cccc2F)cc1OC` [Compound 202, N^2-[2-(2,6-difluorobenzyl)-5-(dimethylamino)phenyl]-N^2-[(3,4-dimethoxyphenyl)sulfonyl]glycinamide]: the IC50 was 1.87 µM in series [1], 7 nM in series [2] and 9 nM in series [3].
Regarding `COc1cccc(S(=O)(=O)N(CC(N)=O)c2ccc(Cl)cc2C(O)c2ccccc2Cl)c1` (centres unmarked) [Compound 30], the IC50 stood at 0.966 µM in series [1], 26 nM in series [2] and 82 nM in series [3].
In turn, `CNC(=O)CN(c1ccc(Cl)cc1C(C)c1ccccc1Cl)S(=O)(=O)c1ccc(OC)c(OC)c1` (centres unmarked) [Compound 187, N^2-{4-chloro-2-[1-(2-chlorophenyl)ethyl]phenyl}-N^2-[(3,4-dimethoxyphenyl)sulfonyl]-N^1-methylglycinamide] yielded a melting point of 151 °C.
On to `Cc1ccc(S(=O)(=O)N(CC(N)=O)c2ccc(Cl)cc2C(O)c2ccccc2Cl)cc1C` (centres unmarked) [Compound 28, N^2-{4-chloro-2-[(2-chlorophenyl)(hydroxy)methyl]phenyl}-N^2-[(3,4-dimethylphenyl)sulfonyl]glycinamide], for which the half-inhibitory concentration (IC50) in series [1] came to 1.5 µM; in series [2] it was 19 nM; in series [3], 62 nM.
`CNC(=O)CN(c1ccc(Cl)cc1N(C)c1ccccc1)S(=O)(=O)c1ccc(OC)c(OC)c1` [Compound 124, N^2-{4-chloro-2-[methyl(phenyl)amino]phenyl}-N^2-[(3,4-dimethoxyphenyl)sulfonyl]-N^1-methylglycinamide]: the IC50 in series [1] (unit μM) was above 10 µM; in series [2] it was 65 nM; in series [3] it was 50 nM.
On to `CCOC(=O)CN(c1ccc(Cl)cc1C(O)c1ccccc1Cl)S(=O)(=O)c1ccc(OC)c(OC)c1` (centres unmarked) [Compound 1, Ethyl N-{4-chloro-2-[(2-chlorophenyl)(hydroxy)methyl]phenyl}-N-[(3,4-dimethoxyphenyl)sulfonyl]glycinate], for which the values for the IC50 in series [1], in series [2] and in series [3] were 0.446 µM, 5 nM and 13 nM, respectively.
`COc1ccc(S(=O)(=O)N(CC(N)=O)c2c(OC)cccc2-c2ccccc2)cc1OC` [Compound 312, N˜2˜-[(3,4-dimethoxyphenyl)sulfonyl]-N˜2˜-(3-methoxybiphenyl-2-yl)glycinamide] yielded a melting point of 86.8 °C.
For the molecule `COc1ccc(S(=O)(=O)N(Cc2nccn2C)c2ccc(Cl)cc2Cc2ccccc2Cl)cc1OC` [Compound 107, N-[4-chloro-2-(2-chlorobenzyl)phenyl]-3,4-dimethoxy-N-[(1-methyl-1H-imidazol-2-yl)methyl]benzenesulfonamide], the values for the IC50 in series [1], in series [2] and in series [3] were 0.899 µM, 11 nM and 20 nM, respectively.
In turn, `COc1ccc(S(=O)(=O)N(Cc2nnnn2C)c2ccc(Cl)cc2Cc2c(F)cccc2F)cc1OC` [Compound 152, N-[4-chloro-2-(2,6-difluorobenzyl)phenyl]-3,4-dimethoxy-N-[(1-methyl-1H-tetrazol-5-yl)methyl]benzenesulfonamide] yielded a melting point of 180.8 °C.
Molecule `COc1ccc(S(=O)(=O)N(CC(N)=O)c2cc(Cl)ccc2Cc2ccccc2Cl)cc1OC` [Compound 179, N^2-[5-Chloro-2-(2-chlorobenzyl)phenyl]-N^2-[(3,4-dimethoxyphenyl)sulfonyl]glycinamide] gave a melting point of 86.4 °C.
Take `COc1ccc(N(CC(N)=O)S(=O)(=O)c2ccc(OC)c(OC)c2)c(Cc2ccccc2Cl)c1` [Compound 138, N^2-[2-(2-Chlorobenzyl)-4-methoxyphenyl]-N^2-[(3,4-dimethoxyphenyl)sulfonyl]glycinamide]: the melting point was determined as 184.6 °C. In addition, in series [1], the IC50 amounted to 4.76 µM. For the same molecule, in series [2], the IC50 came out at 11 nM. Further, in series [3], the IC50 worked out at 8 nM.
As for `CNC(=O)CN(c1ccc(Cl)cc1C(O)c1ccccc1)S(=O)(=O)c1ccc(OC)c(OC)c1` (centres unmarked) [Compound 137, N^2-{4-chloro-2-[hydroxy(phenyl)methyl]phenyl}-N^2-[(3,4-dimethoxyphenyl)sulfonyl]-N^1-methylglycinamide], the IC50 in series [1] (unit μM) was above 10 µM; in series [2], 10 nM; in series [3], 19 nM.
`COC(=O)CN(c1ccc(Cl)cc1C(O)c1ccccc1Cl)S(=O)(=O)c1ccc(OC)c(OC)c1` (centres unmarked) [Compound 21, Methyl N-{4-chloro-2-[(2-chlorophenyl)(hydroxy)methyl]phenyl}-N-[(3,4-dimethoxyphenyl)sulfonyl]glycinate]: the melting point worked out at 158.5 °C.
With `COc1ccc(S(=O)(=O)N(Cc2nnn(C)n2)c2ccc(Cl)cc2C(O)c2ccccc2Cl)cc1OC` (centres unmarked) [Compound 14, N-{4-chloro-2-[(2-chlorophenyl)(hydroxy)methyl]phenyl}-3,4-dimethoxy-N-[(2-methyl-2H-tetrazol-5-yl)methyl]benzenesulfonamide], the melting point amounted to 94.8 °C.

Source of the values: patent US7396958B2, “Sulphonamide derivatives, their preparation and their therapeutic application” (Sanofi Aventis, priority 2004, dated 2008).
